These are literature values, as cited in patent publication US4868157A, “Dipeptidyl 2-amino-1,2-dideoxy-D-glucose derivatives as host resistance enhancers in AIDS-immunocompromised hosts and methods of use” (priority 1987, dated 1989).

The subject of data set [1] is AIDS-related Kaposi's sarcoma. The conditions noted are these: AIDS-related Kaposi's sarcoma cases.
Data set [2] deals with Mycobacterium aviumintracellulare.
Another data set has as its system AIDS-related virus. The conditions noted are these: for symptoms and/or immune function in patients: ARC or AIDS patients, clinical trials; for viral replication in patients: humans / AIDS patients.
Data set [3] addresses HIV reverse transcriptase (Human immunodeficiency virus type 1 group M subtype B, UniProt P04585).

In the case of α-Interferon, the “growth of HIV in vitro” value with HIV was “Checks the growth of HIV in vitro”. Moreover, in data set [1], the tumor regression entry was “induced tumor regression in some AIDS-related Kaposi's sarcoma cases”.

For `CO[C@H]1/C=C/O[C@@]2(C)Oc3c(C)c(O)c4c(c3C2=O)C2=NC3(CCN(CC(C)C)CC3)NC2=C(NC(=O)/C(C)=C\C=C\[C@H](C)[C@H](O)[C@@H](C)[C@@H](O)[C@@H](C)[C@H](OC(C)=O)[C@@H]1C)C4=O` [Ansamycin, rifabutin], the “efficacy in AIDS patients with opportunistic Mycobacterium aviumintracellulare infection” value in data set [2] is on record as “some efficacy”.

As for “ammonium 21-tungsto-9-antimoniate [HPA-23]”, the “therapeutic benefit / clinical improvement in AIDS patients” value in the data set with AIDS-related virus is given as “no therapeutic benefit has been documented”.

Turning to `Cc1ccc(C(=O)Nc2ccc(S(=O)(=O)O)c3cc(S(=O)(=O)O)cc(S(=O)(=O)O)c23)cc1NC(=O)c1cccc(NC(=O)Nc2cccc(C(=O)Nc3cc(C(=O)Nc4ccc(S(=O)(=O)O)c5cc(S(=O)(=O)O)cc(S(=O)(=O)O)c45)ccc3C)c2)c1` [Suramin], the “therapeutic benefit / clinical improvement in AIDS patients” value in the data set with AIDS-related virus is on record as “little or no evidence of clinical improvement or immunologic recovery”.

Consider `O=C(O)P(=O)(O)O` [Foscarnet, trisodium phosphonoformate], for which the “inhibition of HIV reverse transcriptase” value in data set [3] is reported as “Inhibits HIV reverse transcriptase activity in vitro at levels pharmacologically acceptable in vivo”.

Take `CC(=O)Nc1ccc(C(=O)O)cc1.CC(=O)Nc1ccc(C(=O)O)cc1.CC(=O)Nc1ccc(C(=O)O)cc1.CC(O)CN(C)C.CC(O)CN(C)C.CC(O)CN(C)C.O=c1[nH]cnc2c1ncn2[C@@H]1O[C@H](CO)[C@@H](O)[C@H]1O` [Inosine pranobex, p-Acetamidobenzoic acid salt of (1-dimethylamino-2-propanol:inosinate complex 3:3:1 molar ratio)]: the “symptoms and/or immune function in patients” value in the data set with AIDS-related virus is reported as “improve immune function”.

Turning to `CC(C)(S)[C@@H](N)C(=O)O` [D-Penicillamine, 3-mercapto-D-valine], the T cell levels result in the data set on AIDS-related virus (human, in vivo) is recorded as “temporarily depressed T cell levels”. Moreover, the “viral replication in patients” value in the data set on AIDS-related virus is “Inhibits HIV reproduction in humans”. Also, the “effect on the virus” value in the data set on AIDS-related virus (trials at George Washington University Medical Center, 13 AIDS patients with perpetually swollen glands) is on record as “suppressed the virus”.

`CC(C)(N1CC1C#N)N1CC1C(N)=O` (stereo not drawn) [Azimexon]: the “symptoms and/or immune function in patients” value with AIDS-related virus was “improvements in symptoms and immune function in patients with ARC but not AIDS”.

With `NC(=O)c1ncn([C@@H]2O[C@H](CO)[C@@H](O)[C@H]2O)n1` [Ribavirin, 1-β-D-ribofuranosyl-1,2,4-triazole-3-carboxamide], in the data set with AIDS-related virus, the “symptoms and/or immune function in patients” value is “improved immune function” and the “viral replication in patients” value is “inhibited viral replication”. Further, the tolerability result (24-week trial in 373 ARC patients, at 12 weeks) is listed as “well tolerated”. Moreover, the safety profile result (human, in vivo) is on record as “acceptable”.
